This is an account of results in patent US20120016014A1, “BENZOTHIOPHENE CARBOXAMIDE COMPOUNDS, COMPOSITION AND APPLICATIONS THEREOF” (INDIAN INSTITUTE OF SCIENCE, priority 2010, published 2012).

“And” between values parts separate entries of the source, which are not always exact repeats. Equal entries are not always repeated. Where two headings read alike, the source gives them in different places.

Experiment [1] relates to blood-stage P. berghei ANKA. The experiment can be described thus: Experimental cerebral malaria in C57BL/6 mice. In kind it is in vivo. As to conditions: for Relative efficacy in the route of administration study: 5 mg/kg body weight, 6 days treatment; for Mean Survival Days (Observed for 25 days): 5 mg/kg body weight daily for six days, C57BL/6 mice. How it is done:
C57BL/6 mice were infected with blood-stage P. berghei ANKA as discussed in the experimental section. After 24 hours of infection mice were treated intravenously with various doses of inhibitors. It was observed that all control mice developed hypothermia by day 2, ataxia and convulsions by day 3 and died by day 6, whereas inhibitor treated groups had considerably higher longevity (11-24 days). Though each group of mice developed hypothermia by day 4, convulsions and ataxia development were delayed in case of treated mice. […] The mice treated with 2.5 mg/kg body weight survived for 18 days. Even at or below 1 mg/kg body weight of inhibitor dose, the mice survived for 11 days, but paralysis and ataxia development occurred on Day 7.
[…]. The mice were treated for 6 days. […]. Chloroquine was used as the control drug. […].
Therefore, compounds 10 and 11 were also administered at 5 mg/Kg body weight. The compounds were administered through intraperitoneal, peroral, subcutaneous and intravenous routes. Compound 10 and 11 were administered once daily for 6 days. […]. The mean survival days for this treatment group was 16 (FIG. 12c and Table III). […]. Chloroquine was used as the control drug.

In experiment [2] the test system is Plasmodium falciparum 3D7. Briefly: In vitro inhibition of P. falciparum 3D7 blood-stage parasites. It counts as cell-based. To be noted: for Stage of parasite growth arrest / Parasites observed to be dead: 2.5 μM; for Stage of parasite growth arrest: added at ring stage, P. falciparum 3D7; for Parasites observed to be dead: synchronised ring stage culture of P. falciparum 3D7; for IC50: read-out: P. falciparum (IC50 μM). On the procedure: Benzothiophene carboxamide derivatives of the present invention were checked for their anti-parasitic activity against 3D7 (chloroquine sensitive strain) in an in vitro culture. […] To find out parasite stage where these compounds act, synchronised ring stage culture of P. falciparum was treated with 2.5 μM concentration of compounds 6 and 7. […] When compounds 6 and 7 were added at the trophozoite stage the cells could not proceed to the schizont stage indicating the growth inhibition occurs at trophozoite stage.
Synchronised culture of P. falciparum 3D7 was treated with 2.5 μM compound 10 and 11 at the ring stage.

Experiment [3] addresses T1, purified PfENR (Plasmodium falciparum, UniProt Q9BH77).
T1 sequence (Q9BH77 22-432): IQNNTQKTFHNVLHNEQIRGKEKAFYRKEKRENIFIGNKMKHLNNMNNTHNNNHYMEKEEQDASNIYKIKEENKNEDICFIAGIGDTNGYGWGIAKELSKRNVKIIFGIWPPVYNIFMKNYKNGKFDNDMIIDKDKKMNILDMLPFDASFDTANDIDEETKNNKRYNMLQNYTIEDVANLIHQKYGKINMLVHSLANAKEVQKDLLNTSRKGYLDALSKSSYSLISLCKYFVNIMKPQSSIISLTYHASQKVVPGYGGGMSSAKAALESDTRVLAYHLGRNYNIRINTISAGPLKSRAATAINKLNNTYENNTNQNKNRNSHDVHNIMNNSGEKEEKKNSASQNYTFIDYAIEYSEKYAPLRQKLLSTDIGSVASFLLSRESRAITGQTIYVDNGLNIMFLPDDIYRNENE
The experiment can be described thus: PfENR inhibition, standard enzyme assay. It counts as biochemical. How it is done: (§1) PfENR activity was determined using standard assay described earlier.

The nature of experiment [4]: Hot plate latency test (thermal hyperalgesia). It counts as in vivo, rats. As to conditions: for MPE index, hot plate latency assay: 15 mg/kg b. wt. i.p., 30 and 60 min; for Anti-nociceptive response, hot plate latency assay: known NSAIDs. On the procedure:
The animals were housed in an animal house facility of National Institute of Immunology, India, with controlled temperature (22±2° C.) under a 12/12 h light/dark cycle. They had free access to food and water ad libitum. All experiments were conducted according to the guidelines of the international association for the study of pain and approved by the institutional ethical committee for animal research. All in vivo experiments were carried out on inbred male […] rats ( 200-320 g body weight). Same age and equal body weight of animals were used according to experiments. No animals were used for more than one experiment. Most popular non-steroidal anti-inflammatory drugs which are widely use for treatment of chronic and inflammatory pain, such as Ibuprofen, Naproxen, Ketoprofen, Aspirin, Nimesulide, Indomethacine were purchased from Cayman Chemicals, USA and used to evaluate the efficacy of drugs in animal model. These drugs and different derivatives of Benzothiophene were dissolved in minimum volume of Dimethyl sulfoxide (DMSO) and further diluted in Phosphate buffer saline prior to use. […] Withdrawal latency for tail flicking was measured. […] NSAIDs is commonly evaluated by hot plate latency assay whereby animals are exposed to thermal stimulus (54 degree […] time for hind paw licking is measured as behavioural response for pain.

A short description of the next experiment: Tail flick latency test. As to conditions: 15 mg/kg b. wt. vs Ibuprofen 50 mg/kg b. wt., 30 min and 60 min post injection.
The nature of experiment [5]: Mechanical hyperalgesia, Randall-Selitto, carrageenan induced. In kind it is in vivo, rats. To be noted: 15 mg/kg b wt., after 1 hrs, basal level in 5 hrs. How it is done:
Mechanical hyperalgesia was measured as hind limb withdrawal threshold in response to a mechanical stimulus applied to hind paws of rat using Randall-selitto meter, Randall and Selitto, 1957. To determine the mechanical hyperalgesia, the force was applied with increased pressure at a constant rate until the animal withdrew its limb. The base line nociceptive threshold was measured before induction of hyperalgesia. Moreover, hyperalgesia was induced by carrageenan and then groups of animal were treated with compound 4, compound 6 and compound 8 (15 mg/kg body weight) and Ibuprofen (50 mg/kg body weight). Control group was treated with physiological saline. […] The anti-nociceptive efficacy of the compounds has been evaluated the efficacy with paw withdrawal threshold latency of animals.

The target of experiment [6] is T1, purified PfENR. Briefly: PfENR inhibition kinetics, cofactor potency and progress curve analysis. In kind it is biochemical. On the procedure:
as §1
The accumulation of product further decreased when compound 6 was preincubated with the enzyme (curve c). On addition of NAD+ to this reaction the rate of product accumulation further decreased (curve d).
Progress curves for inhibition by varying concentrations of compounds 6 and 7 were examined in detail (FIGS. 16a and 16b). From the progress curve analyses, it was inferred that for each concentration of the inhibitors the initial and the steady state velocity decreased exponentially with time. At higher inhibitor concentration, steady state is reached rapidly with a decrease in steady state velocity (vs). […] Progress curves were analysed using equation 3a from which a series of Kobs values were obtained for each concentration of inhibitor.

Where [7] appears, read: Erythrocyte, growth inhibition, red blood cell stages of Plasmodium falciparum 3D7 (chloroquine sensitive).
Setting [8] is: read-out: Inhibition of PfENR (IC50 μM).

Usually IC50 stands for the midpoint of a concentration-inhibition curve. In general, Ki refers to a dissociation constant, usually derived from enzyme kinetics or from competition with a known ligand. Read a high Ki as lower affinity.

Experimental for Tail flick latency test: Hot plate latency test was performed under red light on the metal surface of hot plate analgesia meter (IITC, Life science, CA). Animals were placed individually on the surface of hot plate maintained at a constant temperature 54±1° C. The anti-nociceptive response was latency recorded from the time when animal was placed on the heated surface until the behavior response show licking of hind paw to avoid thermal nociception. A maximum hot plate latency of 30 sec was used for each animal to prevent paw tissue damage. Base line nociceptive latency was obtained for each animal prior to any drug administration. Thereafter, groups of animals were treated with different concentration of different derivatives of benzothiophene and well known NSAIDs. […] Subsequent nociceptive response latency for each animal was determined at 30 and 60 min after drug administration. […] In continuation of tail flick latency assay, the anti-nociceptive effect of the compounds was monitored. Rats treated as described above were subjected to determination of thermal nociceptive pain. Rats were confined in restrainer and allowed to accommodate. The tail withdrawal test consisted of immersing the posterior 8-10 cm of the tail in hot water bath maintained at 54±1° C. Withdrawal latency for tail flicking was measured. A maximum tail flick latency of 20 sec was permitted to minimize tissue damage.

As to `CCN(CC)CCCC(C)Nc1ccnc2cc(Cl)ccc12` (stereo not drawn) [Chloroquine, reference compound], the “Relative efficacy in the route of administration study” value in experiment [1] was “more effective via intravenous and subcutaneous routes compared to oral administration”. In addition, the “Mean Survival Days (Observed for 25 days)” value (“Mean Survival Days” for short) in experiment [1] (Intraperitoneal) amounted to 20 ± 1.5 days; in experiment [1] (Intravenous), 25 ± 2.1 days; in experiment [1] (Per oral), 17 ± 1.4 days; in experiment [1] (Subcutaneous), 21 ± 1.7 days.
As to `C=CCN(Cc1ccc(F)cc1)C(=O)c1sc2ccccc2c1Br` [Compound 10, 3-bromo-N-(4-fluorobenzyl)-N-(prop-2-en-1-yl)-benzo[b]thiophene-2-carboxamide], the “Stage of parasite growth arrest” value in experiment [2] is listed as “arrested after 48 hours at the trophozoite stage”. Besides, in experiment [2], the “Parasites observed to be dead” value was 40%. The IC50 in experiment [2] (setting [7]) is 2.93 ± 1.2 µM; on purified PfENR [3] (setting [8]), 51.98 ± 0.43 µM. Further, in experiment [4], the “MPE index, hot plate latency assay” value is listed as “less latency in comparison to other derivatives”. The “Mean Survival Days” value is 11 ± 0.8 days in experiment [1] (Intraperitoneal); 15 days and 15 ± 0.7 days in experiment [1] (Intravenous, 5 mg/kg); 7 ± 1.2 days in experiment [1] (Per oral); 12 ± 1.6 days in experiment [1] (Subcutaneous).
In the case of `CC(C)Cc1ccc(C(C)C(=O)O)cc1` (stereo not drawn) [Ibuprofen, reference compound], the “Anti-nociceptive response, hot plate latency assay” value in experiment [4] (50 mg/kg b. wt., 60 minutes post administration) is “better anti-nociceptive effect compared to other NSAIDs”; in experiment [4] (30 minutes post administration, wistar rats), “better anti-nociceptive drug as compared to other NSAIDs”.
As to `COc1ccc(CNC(=O)c2sc3ccccc3c2Br)cc1` [Compound 5, N-(4-methoxybezyl)-3-bromobenzo[b]thiophene-2-carboxamide], the results for the IC50 (in experiment [2] (setting [7]); at purified PfENR [3] (setting [8])) were 5.93 ± 0.3 µM and 31.99 ± 0.23 µM, respectively.
With `O=C(NCCc1ccccc1)c1sc2ccccc2c1Br` [Compound 8, 3-bromo-N-(2-phenylethyl)-benzo[b]thiophene-2-carboxamide], the IC50 in experiment [2] (setting [7]) came to 2.46 ± 0.7 µM; on purified PfENR [3] (setting [8]) it was 54.98 ± 0.42 µM. Besides, the “Analgesic activity compared with Ibuprofen, hot plate” value in experiment [4] (compounds 15 mg/kg b. wt. vs Ibuprofen 50 mg/kg b. wt.) is “potent analgesic activity at much lower concentration than Ibuprofen”. Further, the “Anti-nociceptive response, tail flick latency assay” value in the experiment “Tail flick latency test” is “better anti-nociceptive response than the Ibuprofen”. The “Mechanical hyperalgesia, paw withdrawal threshold” value in experiment [5] was “significantly reversed the mechanical hyperalgesia”.
As for `O=C(NCc1cccc2ccccc12)c1sc2ccccc2c1Br` [Compound 9, 3-bromo-N-(naphthalen-1-ylmethyl)-benzo[b]thiophene-2-carboxamide], the results for the IC50 (in experiment [2] (setting [7]); at purified PfENR [3] (setting [8])) were 2.45 ± 0.9 µM and 52.56 ± 0.33 µM, respectively. Besides, the “Anti-nociceptive response, tail flick latency assay” value in the experiment “Tail flick latency test” is “better anti-nociceptive response than the Ibuprofen”.
With `O=C(O)c1sc2ccccc2c1Br` [Compound 1], the IC50 was found to be 2.1 ± 0.4 µM in experiment [2] (setting [7]) and 1.68 ± 0.045 µM at purified PfENR [3] (setting [8]).
For `C=CCN(Cc1ccc(C(F)(F)F)cc1)C(=O)c1sc2ccccc2c1Br` [Compound 11, 3-bromo-N-(prop-2-en-1-yl)-N-[4-(trifluoromethyl)benzyl]-1-benzo[b]thiophene-2-carboxamide], in experiment [2], the “Stage of parasite growth arrest” value is “arrested after 48 hours at the trophozoite stage”. For the same molecule, the “Parasites observed to be dead” value in experiment [2] was “around 70%”. Also, the IC50 in experiment [2] (setting [7]) is 1.3 ± 0.1 µM; at purified PfENR [3] (setting [8]), 52.48 ± 0.22 µM. The “MPE index, hot plate latency assay” value in experiment [4] is “less latency in comparison to other derivatives”. Also, the “Mean Survival Days” value in experiment [1] (Intraperitoneal, 5 mg/kg) is 10 ± 1.2 days; in experiment [1] (Intraperitoneal, listed as compound 11, 5 mg/kg), 10 days; in experiment [1] (Intravenous, 5 mg/kg), 16 ± 1.5 days; in experiment [1] (Intravenous, listed as compound 11, 5 mg/kg) it was 16 days; in experiment [1] (Per oral), 7 ± .6 days; in experiment [1] (Subcutaneous, 5 mg/kg), 14 ± 1.2 days. Besides, the “Mean Survival Days” value in experiment [1] (Subcutaneous, listed as compound 11, 5 mg/kg) was found to be 14 days.
`O=C(NCc1ccc(C(F)(F)F)cc1)c1sc2ccccc2c1Br` [Compound 7, N-(4-trifluorobenzyl)-3-bromobenzo[b]thiophene-2-carboxamide]: the “Stage of parasite growth arrest” value in experiment [2] is on record as “arrested at the trophozoite stage”. In addition, the “Parasites observed to be dead” value in experiment [2] is listed as around 90%. Further, the IC50 is 1.18 ± 0.2 µM in experiment [2] (Plasmodium falciparum, 3D7, Erythrocyte) and 0.463 ± 0.1 µM on purified PfENR [3] (Inhibition of PfENR (IC50 μM)). Moreover, the “Relative efficacy in the route of administration study” value in experiment [1] is reported as “comparative activity to compound 6”. The “Mean Survival Days” value in experiment [1] (Intraperitoneal) is 21 ± 1.3 days; in experiment [1] (Intravenous) it was 24 ± 2.1 days; in experiment [1] (Per oral), 11 ± 0.9 days; in experiment [1] (Subcutaneous), 15 ± 1.2 days. On purified PfENR [6], this molecule had a Ki of 86.1 nM. On purified PfENR [6] (inhibitor 0-750 nM), the “Binding behaviour from progress curves” value was “slow tight binding behaviour”. Also, the “Isomerization rate constant (k5 * 10^−2) (s^−1)” value at purified PfENR [6] (purified PfENR, progress curves) was 1.65 ± .023 10^−2 s^−1. For the same molecule, on purified PfENR [6] (read-out: Dissociation rate constant (k6* 10^−3) (s^−1)), the koff turned out to be 0.0069 ± 3e-07 s⁻¹. In “Tail flick latency test”, the “Anti-nociceptive response, tail flick latency assay” value is reported as “better anti-nociceptive response than the Ibuprofen”.
